One assay relates to B. subtilis. The experiment in a line: MIC of compounds against B. subtilis (OD600, 48 h). It is filed as cell-based. Particulars: Bacillus subtilis; for MIC: MIC = 90% growth inhibition, compound alone; for inhibition at 12.5 µM: compound alone at 12.5 μM, NA=no activity, read-out: Growth inhibition of B. subtilis at 12.5 μM; for inhibition at 25 µM: read-out: Growth inhibition of B. subtilis at 25 μM, compound alone at 25 μM; for inhibition at 2 µM: read-out: Growth inhibition of B. subtilis at 2 μM, compound alone at 2 μM; for inhibition at 12 µM: compound alone at 12 μM, read-out: Growth inhibition of B. subtilis at 12 μM; for inhibition at 6 µM: read-out: Growth inhibition of B. subtilis at 6 μM, compound alone at 6 μM, NA=no activity. The procedure: Bacteria were then cultured with varying concentration of the compounds shown below for 48 hours, and then bacterial density was measured based on OD600. The procedure to determine the MIC for each compound against B. subtilis was the same except that the bacteria was cultured in nutrient broth. The MIC of each compound against B. subtilis is shown in Table 2 (NA=no activity, --=not tested).

The test system of the next assay is E. coli. Kind of assay: MIC of compounds against E. coli (OD600, 48 h). It is filed as cell-based. To be noted: Escherichia coli; for inhibition at 12 µM: compound alone at 12 μM, read-out: Growth inhibition of E. coli at 12 μM; for inhibition at 12 µM / MIC: NA=no activity; for inhibition at 25 µM: read-out: Growth inhibition of E. coli at 25 μM, compound alone at 25 μM, NA=no activity; for inhibition at 50 µM: read-out: Growth inhibition of E. coli at 50 μM, compound alone at 50 μM, NA=no activity; for MIC: MIC = 90% growth inhibition, compound alone.

The MIC is the lowest concentration that inhibits growth of the organism. For orientation: inhibition means the drop in the measured response relative to a control, in per cent. Take `CCCNC(=N)c1ccc(COc2cc(C)cc(OCc3ccc(C(=N)NCCC)cc3)c2)cc1` [drawing 786]: in the assay on B. subtilis, the MIC came to 50 µM, the inhibition at 12.5 µM came to 30% and the inhibition at 25 µM was 50%.

On to `COc1cc(C(=N)N)ccc1OCc1cc(C)cc(COc2ccc(C(=N)N)cc2OC)c1` [drawing 768], for which, in the assay on E. coli, the inhibition at 12 µM stood at 25% and the inhibition at 25 µM worked out at 50%. Further, in the assay on B. subtilis, the MIC was found to be 6 µM and the inhibition at 2 µM turned out to be 50%. Moreover, the inhibition at 1 µM in the assay with B. subtilis (read-out: Growth inhibition of B. subtilis at 1 μM, compound alone at 1 μM) is 10%.

In the case of `Cc1cc(COc2ccc(CN)cc2)cc(COc2ccc(CN)cc2)c1` [drawing 780], the inhibition at 12 µM in the assay with E. coli and in the assay with B. subtilis was 10% throughout. Also, the inhibition at 25 µM with E. coli amounted to 30%.

For the compound `N=C(N)c1ccc(OCc2cccc(COc3ccc(C(=N)N)cc3)n2)cc1` [drawing 776], the inhibition at 50 µM with E. coli worked out at 50%. For the same compound, in the assay on B. subtilis, the minimal inhibitory concentration (MIC) turned out to be 12.5 µM and the inhibition at 2 µM was 40%.

`N=C(N)c1ccc(OCc2cccc(COc3ccc(C(=N)N)cc3)c2)cc1` [drawing 773]: in the assay on E. coli, the inhibition at 12 µM was 35%, the inhibition at 25 µM stood at 50% and the inhibition at 50 µM was determined as 60%. For the same compound, in the assay on B. subtilis, the inhibition at 12 µM amounted to 70%, the inhibition at 2 µM turned out to be 30% and the inhibition at 6 µM was found to be 60%.

As for `CC(C)NC(=N)c1ccc(OCc2cccc(COc3ccc(C(=N)NC(C)C)cc3)c2F)cc1` [drawing 784], in the assay on E. coli, the inhibition at 12 µM amounted to 60% and the inhibition at 25 µM was found to be 80%. Moreover, in the assay with B. subtilis, the inhibition at 12 µM was found to be 80% and the inhibition at 6 µM worked out at 70%.

Consider `CC(C)NC(=N)c1ccc(OCc2cccc(COc3ccc(C(=N)NC(C)C)cc3F)c2F)c(F)c1` [drawing 785], for which, in the assay with E. coli, the inhibition at 12 µM stood at 40% and the inhibition at 25 µM was determined as 50%. In the assay on B. subtilis, the inhibition at 12 µM came to 70% and the inhibition at 6 µM came out at 60%.

Consider `Fc1c(COc2ccc(C3=NCCN3)cc2)cccc1COc1ccc(C2=NCCN2)cc1` [drawing 763], for which the inhibition at 25 µM in the assay on E. coli was 20%.

For `Cc1cc(COc2ccc(C(=N)N)cc2F)cc(COc2ccc(C(=N)N)cc2F)c1` [drawing 794], the inhibition at 25 µM with E. coli was found to be 30%.

Regarding `CCCCc1cc(OCc2ccc(C(=N)N)cc2)cc(OCc2ccc(C(=N)N)cc2)c1` [drawing 796], the inhibition at 10 µM in the assay with E. coli (read-out: Growth inhibition of E. coli at 10 μM, compound alone at 10 μM) amounted to 20%.

Turning to `Cc1cc(COc2cccc(C(=N)N)c2)cc(COc2cccc(C(=N)N)c2)c1` [drawing 790], the inhibition at 50 µM in the assay on E. coli was 80%. Moreover, the MIC in the assay with B. subtilis was 50 µM.

`Cn1c(CCCCc2nc3ccc(C(=N)N)cc3n2C)nc2ccc(C(=N)N)cc21` [drawing 754]: in the assay on B. subtilis, the inhibition at 25 µM is 20%.

Turning to `Cc1cc(COc2ccc(C3=CCCCN3)cc2)cc(COc2ccc(C3=NCCCN3)cc2)c1`, in the assay on B. subtilis, the MIC came to 50 µM and the inhibition at 25 µM amounted to 50%.

Turning to `N=C(N)c1ccc(Oc2ccc(C(=N)N)cc2)cc1` [drawing 755], in the assay with B. subtilis, the inhibition at 12.5 µM came to 60% and the inhibition at 25 µM was 70%.

As for `c1cc(COc2ccc(C3=NCCN3)cc2)cc(COc2ccc(C3=NCCN3)cc2)c1` [drawing 762], in the assay on E. coli, the inhibition at 12 µM came out at 25% and the inhibition at 25 µM was found to be 50%.

On to `Cc1ccc(COc2ccc(C(=N)N)cc2)cc1COc1ccc(C(=N)N)cc1` [drawing 793], for which, in the assay on B. subtilis, the inhibition at 12 µM was determined as 60% and the inhibition at 6 µM amounted to 40%.

In the case of `N=C(N)c1ccc(OCOc2ccc(C(=N)N)cc2)cc1` [drawing 777], in the assay with B. subtilis, the inhibition at 12.5 µM was 80% and the inhibition at 6 µM came to 10%.

Regarding `Cc1cc(CSc2ccc(C3=NCCN3)cc2)cc(CSc2ccc(C3=NCCN3)cc2)c1` [drawing 792], in the assay on E. coli (compound alone at 12.5 μM, read-out: Growth inhibition of E. coli at 12.5 μM), the inhibition at 12.5 µM turned out to be 10%.

`N=C(N)c1ccc(OCCCCCCCCOc2ccc(C(=N)N)cc2)cc1` [drawing 774]: the MIC in the assay on E. coli was determined as 25 µM.

`CO/N=C(\N)c1ccc(OCc2cc(C)cc(COc3ccc(/C(N)=N\OC)cc3)c2)cc1` [drawing 795]: the MIC in the assay with E. coli worked out at 100 µM.
